Activity calls are given as the source filed them.
Columns and labels:
[1] = molecular target: T1, RNA-binding protein pos-1 (Caenorhabditis elegans, UniProt G5EF15); assay: inhibitors of POS-1/mex-3 RNA binding, dose response, biochemical, fluorescence polarization (AID 1964);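 also: purified POS-1 fused to maltose binding protein made in E. coli; potency of compounds blocking POS-1 binding to fluorescent RNA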
T1 sequence (G5EF15 whole entry): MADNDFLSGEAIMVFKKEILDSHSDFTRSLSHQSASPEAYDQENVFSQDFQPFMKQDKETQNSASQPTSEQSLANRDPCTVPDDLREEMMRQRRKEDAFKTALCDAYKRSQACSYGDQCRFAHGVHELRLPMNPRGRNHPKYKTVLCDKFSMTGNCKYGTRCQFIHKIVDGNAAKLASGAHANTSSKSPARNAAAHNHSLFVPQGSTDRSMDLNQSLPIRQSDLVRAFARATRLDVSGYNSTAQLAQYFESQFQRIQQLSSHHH

[2] = molecular target: T2, Zinc finger protein mex-5 (Caenorhabditis elegans, UniProt Q9XUB2); assay: MEX-5/TCR-2 RNA interaction inhibitors, dose response, biochemical, C. elegans, fluorescence polarization (AID 1960)
T2 sequence (Q9XUB2 whole entry): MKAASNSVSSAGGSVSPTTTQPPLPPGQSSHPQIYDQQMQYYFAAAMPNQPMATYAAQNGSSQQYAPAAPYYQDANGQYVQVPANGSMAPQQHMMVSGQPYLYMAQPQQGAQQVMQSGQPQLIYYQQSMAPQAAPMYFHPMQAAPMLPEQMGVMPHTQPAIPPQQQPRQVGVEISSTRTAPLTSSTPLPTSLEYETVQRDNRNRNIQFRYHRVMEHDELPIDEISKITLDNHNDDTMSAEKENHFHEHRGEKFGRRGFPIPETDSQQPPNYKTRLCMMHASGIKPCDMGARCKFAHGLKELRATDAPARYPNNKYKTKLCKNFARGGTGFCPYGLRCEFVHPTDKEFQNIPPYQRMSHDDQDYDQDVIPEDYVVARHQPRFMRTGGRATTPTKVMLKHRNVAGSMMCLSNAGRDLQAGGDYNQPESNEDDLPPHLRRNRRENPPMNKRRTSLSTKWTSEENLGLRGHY

[3] = molecular target: T3, Endoribonuclease toxin MazF (Escherichia coli K-12, UniProt P0AE70); assay: MazF toxin RNase activators, dose response, biochemical, fluorescence, single-stranded RNA substrate, uHTS hits (AID 588481); assay type: functional
T3 sequence (P0AE70 whole entry): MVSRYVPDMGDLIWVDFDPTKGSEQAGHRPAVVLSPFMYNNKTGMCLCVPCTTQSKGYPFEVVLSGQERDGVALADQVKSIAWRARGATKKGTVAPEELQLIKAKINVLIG

[4] = molecular target: T3, Endoribonuclease toxin MazF; assay: fluorescent RNA oligo signal without MazF, dose response, counter-screen for MazEF activator project, biochemical, fluorescence, single-stranded RNase substrate (AID 588502); assay type: functional
HEK293 = assay: cells; assay type: functional, cell-based; settings: Homo sapiens
[5] = molecular target: T4, Nuclear receptor subfamily 0 group B member 1 (Homo sapiens, UniProt P51843); assay: Luminescence-based cell-based high throughput dose response assay for inhibitors of the orphan nuclear receptor subfamily 0, group B, member 1 (DAX1; NR0B1). [Related pubchem assays (depositor defined):AID504766, AID504790]; assay type: functional
T4 sequence (P51843 whole entry): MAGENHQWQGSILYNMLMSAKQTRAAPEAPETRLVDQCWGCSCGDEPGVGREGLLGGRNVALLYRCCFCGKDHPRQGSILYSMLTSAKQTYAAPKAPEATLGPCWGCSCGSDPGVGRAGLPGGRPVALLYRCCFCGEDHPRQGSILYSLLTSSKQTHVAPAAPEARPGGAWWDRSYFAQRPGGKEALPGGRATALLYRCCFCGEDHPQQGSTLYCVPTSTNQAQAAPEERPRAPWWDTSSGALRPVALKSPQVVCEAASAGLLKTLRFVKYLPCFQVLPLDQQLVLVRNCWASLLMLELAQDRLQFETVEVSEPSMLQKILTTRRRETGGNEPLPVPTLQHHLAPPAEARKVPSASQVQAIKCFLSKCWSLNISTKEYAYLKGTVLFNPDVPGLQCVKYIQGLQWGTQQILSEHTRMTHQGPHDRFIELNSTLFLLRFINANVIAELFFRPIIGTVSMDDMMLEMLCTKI

[6] = molecular target: T5, Short transient receptor potential channel 4 (Mus musculus, UniProt Q9QUQ5); assay: mouse TRPC4 channel activators, dose response, cell-based, HEK293 TRPC4/mu-opioid, Fluo-4 calcium (AID 434937); assay type: functional
T5 sequence (Q9QUQ5 whole entry): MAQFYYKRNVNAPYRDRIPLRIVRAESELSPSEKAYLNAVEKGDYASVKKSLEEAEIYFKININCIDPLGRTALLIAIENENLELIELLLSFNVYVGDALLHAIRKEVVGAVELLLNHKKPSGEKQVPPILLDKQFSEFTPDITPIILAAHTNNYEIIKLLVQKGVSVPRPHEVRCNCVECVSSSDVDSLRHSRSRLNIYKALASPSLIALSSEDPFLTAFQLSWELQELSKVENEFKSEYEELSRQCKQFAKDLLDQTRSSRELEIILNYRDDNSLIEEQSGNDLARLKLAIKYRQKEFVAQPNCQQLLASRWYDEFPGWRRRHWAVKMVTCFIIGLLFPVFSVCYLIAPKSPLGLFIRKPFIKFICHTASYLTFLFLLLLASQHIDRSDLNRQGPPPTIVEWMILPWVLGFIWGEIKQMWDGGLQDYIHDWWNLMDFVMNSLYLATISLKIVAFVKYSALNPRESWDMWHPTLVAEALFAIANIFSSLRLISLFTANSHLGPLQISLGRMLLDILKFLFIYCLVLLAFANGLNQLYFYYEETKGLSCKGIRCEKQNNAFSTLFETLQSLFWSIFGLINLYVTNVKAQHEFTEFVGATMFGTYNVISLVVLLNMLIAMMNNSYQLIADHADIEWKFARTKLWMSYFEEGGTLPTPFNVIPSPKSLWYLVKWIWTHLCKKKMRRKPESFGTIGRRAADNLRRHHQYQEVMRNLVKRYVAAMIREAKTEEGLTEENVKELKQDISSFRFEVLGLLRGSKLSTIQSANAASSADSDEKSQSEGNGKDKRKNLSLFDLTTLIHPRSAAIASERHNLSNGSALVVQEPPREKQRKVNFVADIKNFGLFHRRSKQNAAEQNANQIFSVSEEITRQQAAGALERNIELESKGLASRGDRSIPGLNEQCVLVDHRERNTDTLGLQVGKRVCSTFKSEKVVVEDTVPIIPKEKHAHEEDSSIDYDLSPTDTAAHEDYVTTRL

[7] = molecular target: T6, Calpain-2 catalytic subunit (Sus scrofa, UniProt P43367); assay: pig calpain II inhibitor potency, dose response, biochemical, fluorogenic peptide substrate (AID 1420); assay type: functional
T6 sequence (P43367 whole entry): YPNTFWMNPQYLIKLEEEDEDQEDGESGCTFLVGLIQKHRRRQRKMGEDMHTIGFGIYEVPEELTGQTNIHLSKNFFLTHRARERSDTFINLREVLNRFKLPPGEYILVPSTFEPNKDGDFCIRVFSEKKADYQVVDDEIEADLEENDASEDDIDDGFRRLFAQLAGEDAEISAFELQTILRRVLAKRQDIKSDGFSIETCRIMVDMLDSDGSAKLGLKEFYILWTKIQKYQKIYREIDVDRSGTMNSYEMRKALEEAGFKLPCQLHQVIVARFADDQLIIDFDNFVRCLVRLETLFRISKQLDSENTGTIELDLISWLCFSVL

[8] = molecular target: T7, Small ubiquitin-related modifier 1 (Homo sapiens, UniProt P63165); assay: inhibitors of SUMO1 peptide binding, dose response, biochemical, fluorescence polarization, uHTS hits (AID 624382); assay type: functional; settings: read-out: IC50_Mean
T7 sequence (P63165 whole entry): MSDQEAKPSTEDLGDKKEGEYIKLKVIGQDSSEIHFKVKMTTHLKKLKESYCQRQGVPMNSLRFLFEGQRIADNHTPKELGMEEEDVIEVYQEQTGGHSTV

[9] = molecular target: T7, Small ubiquitin-related modifier 1; assay: inhibitors of SUMO1 partner interactions, dose response, biochemical, FRET (AID 624383); assay type: functional; settings: read-out: IC50_Mean
[10] = molecular target: T8, DNA repair and recombination protein RAD54-like (Homo sapiens, UniProt Q92698); assay: inhibitors of human RAD54 branch migration, confirmation, biochemical, fluorescence, cherry-picked samples, dose series (AID 651657); assay type: functional
T8 sequence (Q92698 whole entry): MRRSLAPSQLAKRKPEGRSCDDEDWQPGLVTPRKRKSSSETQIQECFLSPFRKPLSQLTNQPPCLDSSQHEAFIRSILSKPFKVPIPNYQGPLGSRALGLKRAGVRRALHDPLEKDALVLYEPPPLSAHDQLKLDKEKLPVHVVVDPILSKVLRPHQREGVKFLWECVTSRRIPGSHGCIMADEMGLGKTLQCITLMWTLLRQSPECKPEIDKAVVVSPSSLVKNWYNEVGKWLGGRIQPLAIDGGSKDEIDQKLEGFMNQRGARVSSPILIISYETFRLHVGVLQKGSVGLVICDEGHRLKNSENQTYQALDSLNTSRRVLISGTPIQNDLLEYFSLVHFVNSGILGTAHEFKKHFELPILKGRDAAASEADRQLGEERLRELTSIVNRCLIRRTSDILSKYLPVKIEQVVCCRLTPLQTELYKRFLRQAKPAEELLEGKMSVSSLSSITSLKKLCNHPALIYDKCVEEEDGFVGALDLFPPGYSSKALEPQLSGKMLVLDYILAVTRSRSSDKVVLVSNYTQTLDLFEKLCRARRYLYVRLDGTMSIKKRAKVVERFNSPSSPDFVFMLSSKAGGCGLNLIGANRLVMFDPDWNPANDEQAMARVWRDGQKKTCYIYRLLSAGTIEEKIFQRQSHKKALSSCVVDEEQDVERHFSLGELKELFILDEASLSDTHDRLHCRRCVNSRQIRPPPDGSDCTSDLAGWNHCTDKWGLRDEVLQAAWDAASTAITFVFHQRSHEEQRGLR

BJ [11] = assay: cytotoxicity toward BJ-TERT fibroblasts, dose response, cell-based, RAS-independent, luminescence (AID 1933); assay type: functional; settings: Homo sapiens
BJ [12] = assay: cells; assay type: functional, cell-based; settings: Homo sapiens
BJ [13] = assay: cytotoxicity toward BJ-TERT-LT-ST fibroblasts, dose response, cell-based, RAS-independent, luminescence (AID 1935); assay type: functional; settings: Homo sapiens;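 also: BJ fibroblasts immortalized with TERT plus LT and ST oncogenes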
[14] = cytotoxicity toward DRD oncogenic fibroblasts, dose response, cell-based, non-viral oncogenic, luminescence (AID 1934); assay type: functional; settings: Homo sapiens
[15] = molecular target: T9, Microphthalmia-associated transcription factor (Homo sapiens, UniProt O75030); assay: TRPM1 promoter luciferase signal decrease, dose response, MITF inhibitor project, cell-based, SK-MEL-5, cherry-picked, set 3 (AID 493073); assay type: functional
T9 sequence (O75030 whole entry): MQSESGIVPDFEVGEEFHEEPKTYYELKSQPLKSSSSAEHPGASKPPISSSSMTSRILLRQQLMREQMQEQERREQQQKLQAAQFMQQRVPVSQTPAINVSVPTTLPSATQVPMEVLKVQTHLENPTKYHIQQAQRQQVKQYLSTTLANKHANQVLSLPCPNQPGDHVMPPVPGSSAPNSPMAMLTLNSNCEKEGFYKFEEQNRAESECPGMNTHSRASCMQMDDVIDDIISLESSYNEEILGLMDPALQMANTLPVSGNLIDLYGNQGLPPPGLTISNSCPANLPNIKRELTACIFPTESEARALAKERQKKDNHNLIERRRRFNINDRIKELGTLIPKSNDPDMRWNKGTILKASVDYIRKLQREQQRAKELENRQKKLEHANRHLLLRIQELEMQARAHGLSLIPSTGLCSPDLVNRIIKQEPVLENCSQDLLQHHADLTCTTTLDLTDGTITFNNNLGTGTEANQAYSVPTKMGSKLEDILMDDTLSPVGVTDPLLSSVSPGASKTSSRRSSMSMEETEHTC

[16] = Fluorescence-based cell-based high throughput dose response assay for inhibitors of the interaction of nucleotide-binding oligomerization domain containing 2 (NOD2) and the receptor-interacting serine-threonine kinase 2 (RIPK2).; assay type: functional; settings: Homo sapiens
Vero = assay: cells; assay type: functional; settings: Chlorocebus sabaeus

In the case of `COc1ccc(/C=C2\CCCC(C(=O)C(F)(F)F)=C2O)cc1`, the EC50 [1] is reported as 36 µM (inconclusive), the EC50 [2] is reported as 41.4 µM (active) and the EC50 [3] is reported as > 99 µM (inactive). The EC50 [4] was 33.8 µM (inactive).
For `COc1ccc(-c2cc3nc4n(c(=O)c3s2)CCCCC4)cc1`, the IC50 (HEK293) was > 67.5 µM (inactive) and the IC50 [5] was > 67.5 µM (inactive).
For `COc1ccc(CN2CCC(n3nccc3NC(=O)CCc3ccccc3)CC2)c(C)c1C`, the EC50 [6] was 2.11 µM (active).
With `O=C(Nc1ccc(Nc2ccncc2)cc1)c1ccc(Nc2ccnc3ccc([N+](=O)[O-])cc23)cc1` the IC50 [7] was 3.36 µM (not active), the IC50 [8] was > 66.6 µM (inactive) and the IC50 [9] was 0.326 µM (active). For the same compound, the AC50 [10] was 100 µM (inactive).
For `CCOc1ccccc1NC(=O)Cn1cnc2c(cnn2-c2ccc(C)c(C)c2)c1=O`, the EC50 [3] was > 99 µM (inactive) and the EC50 [4] was > 99 µM (inactive).
With `CNC(=O)COC(=O)c1ccccc1C(=O)c1ccc(Cl)c([N+](=O)[O-])c1` the EC50 (BJ [11]) was 4.68 µM (active), the EC50 (BJ [12]) was 5.44 µM (inconclusive) and the EC50 (BJ [13]) was 2.42 µM (inconclusive). The EC50 [14] was 10 µM (inconclusive), the AC50 [15] was 9.77 µM (active) and the IC50 [16] was 2.58 µM (active).
With `COCCN(C(S)=Nc1cccc(C)c1C)C(C)c1ccco1` (stereo not drawn) the IC50 (HEK293) was > 67.6 µM (inactive) and the IC50 [5] was > 67.6 µM (inactive).
For `CCN1C(=O)/C(=C2\C=Cc3ccccc3N2CC)OC1=S`, the EC50 [3] was > 99 µM (inactive) and the EC50 [4] was > 99 µM (inactive).
With `CCOc1cnc(C(=O)NNC(=O)C(Br)C(C)C)o1` (stereo not drawn) the IC50 (HEK293) was > 67.5 µM (inactive) and the IC50 [5] was > 67.5 µM (inactive).
In the case of `COc1ccc(-c2[nH]ncc2CN2CCN(Cc3cccs3)CC2)cc1F`, the IC50 (HEK293) is reported as > 67.5 µM (inactive) and the IC50 [5] is reported as > 67.5 µM (inactive).
With `O=[N+]([O-])c1ccc(N2CCCNCC2)c2ncccc12` the EC50 [6] was 0.008 µM (active).
In the case of `COc1ccc(/C=C2/CSC/C(=C/c3ccc(OC)c(OC)c3)C2=O)cc1OC`, the CC50 (Vero) is reported as 8.1 µM (active).
In the case of `COc1ccc(C(CNC(=O)c2cccc(S(=O)(=O)NCc3ccccc3)c2)N(C)C)cc1` (stereo not drawn), the EC50 [6] is reported as 0.421 µM (active).
With `COc1ccccc1C(=O)NCc1nnc(SCC(=O)Nc2nccs2)n1C` the IC50 (HEK293) was > 67.6 µM (inactive) and the IC50 [5] was > 67.6 µM (inactive).
In the case of `Cc1csc2c(N3CCN(C(=O)NC(C)(C)C)CC3)ncnc12`, the EC50 [6] is reported as 5.31 µM (active).
